{"source": "patent US20080039422A1", "about": "“Vitamin B12-Containing Compositions and Methods of Use” (Transition Therapeutics Inc., priority 2004, published 2008)", "key": {"[1]": {"test": "CN-Cbl concentration in excipient solutions after challenge, mixing and heating", "format": "physicochemical", "method": "The experiments conducted in this series feature cyanocobalamin (CN-Cbl). Varying amounts of CN-Cbl were added to various excipients, including water alone, water with one other agent (e.g., ethanol) and water with two other agents (e.g., ethanol and propylene glycol). The stability was tested after varying amounts of time, and following procedures in which the vitamin B12 compound and its excipient were combined by vigorous mixing and heated.\nMore specifically, for each excipient condition, CN-Cbl was weighed into an Eppendorf tube, and an appropriate volume of excipient solution was added to achieve the “challenge” concentration in a total volume of ˜0.4-0.7 ml. The tube was then vortexed before being heated to 60° C. for two hours, with additional mixing by vortexing carried out for 5-10 seconds every 5-10 minutes.\nFollowing the mixing and heating procedure described above, the tubes were cooled to room temperature (RT) and left at room temperature for 1-2 hours. Before measuring the concentration of CN-Cbl, the solutions were clarified by centrifugation for ten minutes at rcf 16,100. […] Cyanocobalamin and cyanocobalamin-containing solutions were protected from light (by being kept covered with foil) as much as practicable.\nIn one study, CN-Cbl was combined with excipients containing propylene glycol, ethanol, PEG 300, or glycerol so that the final maximum concentration of CN-Cbl could be as high as 100 mg/ml. The amount of each excipient was also varied from 5-80% (however, not all possible variants were tested). […] The concentration of CN-Cbl to be solubilized (the “challenge”) in each case was 100 mg/ml of CN-Cbl, and the concentration of each of the excipients varied from 5% to 80% in water. […] The concentrations of CN-Cbl in other excipients were even greater. For example, the concentration of CN-Cbl in solutions containing 40 or 50% PEG 300 was about 45 mg/ml; the concentration in 15% ethanol was about 35 mg/ml; the concentration in 20% ethanol was about 52 mg/ml; and the concentrations in propylene glycol at any concentration over 30% was more than 85 mg/ml (see Table 1).\nIn other studies, combinations were tested of ethanol and propylene glycol or of ethanol and PEG 300. Tables 2A-2D are tables showing the concentrations of cyanocobalamin (CN-Cbl; mg/ml) in combinations of excipients. […] The concentrations of ethanol ranged from 0-20% and the concentrations of propylene glycol ranged from 0 to 60%. […] In Table 2C, the amount of propylene glycol and the amount of CN-Cbl (the “challenge”) varied. The excipient contained 20% ethanol and 0-40% propylene glycol, and the amount of CN-Cbl challenge added varied from 50-200 mg/ml. Table 2D reports final concentrations of CN-Cbl when excipients containing varying amounts of propylene glycol and ethanol were challenged with 400 mg/ml CN-Cbl."}, "[2]": {"test": "Stability of CN-Cbl solutions stored at room temperature (3 days, 2 weeks)", "format": "physicochemical", "settings": "After 2 weeks at Room Temperature, ethanol 0%, PG 0% (v/v)"}}}
{"substance": "cyanocobalamin [CN-Cbl]", "values": [{"measurement": "final concentration of CN-Cbl", "setting": "[1]; challenge 50 mg/ml, 20% ethanol and 0-40% propylene glycol", "value": "about 50 mg/ml"}, {"measurement": "concentration of CN-Cbl", "setting": "[1]; challenge 100 mg/mL, Ethanol 10.0% (v/v)", "value": 29.4, "unit": "mg/mL"}, {"measurement": "concentration of CN-Cbl", "setting": "[1]; challenge 100 mg/mL, Glycerol 10.0% (v/v)", "value": 18.2, "unit": "mg/mL"}, {"measurement": "concentration of CN-Cbl", "setting": "[1]; challenge 100 mg/mL, Glycerol 15.0% (v/v)", "value": 19.4, "unit": "mg/mL"}, {"measurement": "concentration of CN-Cbl", "setting": "[1]; challenge 100 mg/mL, Glycerol 20.0% (v/v)", "value": 21.5, "unit": "mg/mL"}, {"measurement": "concentration of CN-Cbl", "setting": "[1]; challenge 100 mg/mL, H2O", "value": 14.1, "unit": "mg/mL"}, {"measurement": "concentration of CN-Cbl", "setting": "[1]; challenge 100 mg/mL, PEG 300 10.0% (v/v)", "value": 24.1, "unit": "mg/mL"}, {"measurement": "concentration of CN-Cbl", "setting": "[1]; challenge 100 mg/mL, PEG 300 20.0% (v/v)", "value": 34.4, "unit": "mg/mL"}, {"measurement": "concentration of CN-Cbl", "setting": "[1]; challenge 100 mg/mL, PEG 300 30.0% (v/v)", "value": 40.5, "unit": "mg/mL"}, {"measurement": "concentration of CN-Cbl", "setting": "[1]; challenge 100 mg/mL, Propylene Glycol 10.0% (v/v)", "value": 28.1, "unit": "mg/mL"}, {"measurement": "concentration of CN-Cbl", "setting": "[1]; challenge 100 mg/mL, Propylene Glycol 20.0% (v/v)", "value": 41.8, "unit": "mg/mL"}, {"measurement": "concentration of CN-Cbl", "setting": "[1]; challenge 100 mg/mL, Propylene Glycol 30.0% (v/v)", "value": 95.3, "unit": "mg/mL"}, {"measurement": "concentration of CN-Cbl", "setting": "[1]; challenge 100 mg/mL, Propylene Glycol 40.0% (v/v)", "value": 95.1, "unit": "mg/mL"}, {"measurement": "concentration of CN-Cbl", "setting": "[1]; challenge 100 mg/mL, Propylene Glycol 50.0% (v/v)", "value": 95.1, "unit": "mg/mL"}, {"measurement": "concentration of CN-Cbl", "setting": "[1]; challenge 100 mg/mL, Propylene Glycol 60.0% (v/v)", "value": 95.1, "unit": "mg/mL"}, {"measurement": "concentration of CN-Cbl", "setting": "[1]; challenge 100 mg/mL, Propylene Glycol 70.0% (v/v)", "value": 85.3, "unit": "mg/mL"}, {"measurement": "concentration of CN-Cbl", "setting": "[1]; challenge 100 mg/mL, Propylene Glycol 80% (v/v)", "value": 90.1, "unit": "mg/mL"}, {"measurement": "final concentration of CN-Cbl", "setting": "[1]; challenge 100 mg/ml, 20% ethanol and 0-40% propylene glycol", "value": "about 100 mg/ml"}, {"measurement": "concentration of CN-Cbl", "setting": "[1]; challenge 100 mg/ml, propylene glycol at any concentration over 30%", "value": "more than 85 mg/ml"}, {"measurement": "final concentration of CN-Cbl", "setting": "[1]; challenge 175 mg/ml, 20% ethanol and 20% propylene glycol", "value": "about 177 mg/ml"}, {"measurement": "concentration of CN-Cbl", "setting": "[1]; challenge 200 mg/ml, PEG 300 40%, ethanol 5%", "value": 77.0, "unit": "mg/mL"}, {"measurement": "concentration of CN-Cbl", "setting": "[1]; challenge 200 mg/ml, PEG 300 40%, ethanol 10%", "value": 44.4, "unit": "mg/mL"}, {"measurement": "concentration of CN-Cbl", "setting": "[1]; challenge 200 mg/ml, PEG 300 40%, ethanol 15%", "value": 62.5, "unit": "mg/mL"}, {"measurement": "concentration of CN-Cbl", "setting": "[1]; challenge 200 mg/ml, PG 0%, ethanol 0%", "value": 17.5, "unit": "mg/mL"}, {"measurement": "concentration of CN-Cbl", "setting": "[1]; challenge 200 mg/ml, PG 0%, ethanol 5%", "value": 22.5, "unit": "mg/mL"}, {"measurement": "concentration of CN-Cbl", "setting": "[1]; challenge 200 mg/ml, PG 0%, ethanol 10%", "value": 28.5, "unit": "mg/mL"}, {"measurement": "concentration of CN-Cbl", "setting": "[1]; challenge 200 mg/ml, PG 0%, ethanol 15%", "value": 27.7, "unit": "mg/mL"}, {"measurement": "concentration of CN-Cbl", "setting": "[1]; challenge 200 mg/ml, PG 0%, ethanol 20%", "value": 176.0, "unit": "mg/mL"}, {"measurement": "concentration of CN-Cbl", "setting": "[1]; challenge 200 mg/ml, PG 20%, ethanol 0%", "value": 31.3, "unit": "mg/mL"}, {"measurement": "concentration of CN-Cbl", "setting": "[1]; challenge 200 mg/ml, PG 20%, ethanol 5%", "value": 34.4, "unit": "mg/mL"}, {"measurement": "concentration of CN-Cbl", "setting": "[1]; challenge 200 mg/ml, PG 20%, ethanol 10%", "value": 55.6, "unit": "mg/mL"}, {"measurement": "concentration of CN-Cbl", "setting": "[1]; challenge 200 mg/ml, PG 20%, ethanol 15%", "value": 182.5, "unit": "mg/mL"}, {"measurement": "concentration of CN-Cbl", "setting": "[1]; challenge 200 mg/ml, PG 20%, ethanol 20%", "value": 177.5, "unit": "mg/mL"}, {"measurement": "concentration of CN-Cbl", "setting": "[1]; challenge 200 mg/ml, PG 30%, ethanol 0%", "value": 35.9, "unit": "mg/mL"}, {"measurement": "concentration of CN-Cbl", "setting": "[1]; challenge 200 mg/ml, PG 30%, ethanol 5%", "value": 64.8, "unit": "mg/mL"}, {"measurement": "concentration of CN-Cbl", "setting": "[1]; challenge 200 mg/ml, PG 30%, ethanol 15%", "value": 150.5, "unit": "mg/mL"}, {"measurement": "concentration of CN-Cbl", "setting": "[1]; challenge 200 mg/ml, PG 30%, ethanol 20%", "value": 180.2, "unit": "mg/mL"}, {"measurement": "concentration of CN-Cbl", "setting": "[1]; challenge 200 mg/ml, PG 40%, ethanol 0%", "value": 172.5, "unit": "mg/mL"}, {"measurement": "concentration of CN-Cbl", "setting": "[1]; challenge 200 mg/ml, PG 40%, ethanol 5%", "value": 177.1, "unit": "mg/mL"}, {"measurement": "concentration of CN-Cbl", "setting": "[1]; challenge 200 mg/ml, PG 40%, ethanol 10%", "value": 184.4, "unit": "mg/mL"}, {"measurement": "concentration of CN-Cbl", "setting": "[1]; challenge 200 mg/ml, PG 40%, ethanol 20%", "value": 186.0, "unit": "mg/mL"}, {"measurement": "concentration of CN-Cbl", "setting": "[1]; challenge 200 mg/ml, PG 50%, ethanol 0%", "value": 145.1, "unit": "mg/mL"}, {"measurement": "concentration of CN-Cbl", "setting": "[1]; challenge 200 mg/ml, PG 50%, ethanol 5%", "value": 179.4, "unit": "mg/mL"}, {"measurement": "concentration of CN-Cbl", "setting": "[1]; challenge 200 mg/ml, PG 50%, ethanol 10%", "value": 190.2, "unit": "mg/mL"}, {"measurement": "concentration of CN-Cbl", "setting": "[1]; challenge 200 mg/ml, PG 50%, ethanol 15%", "value": 179.4, "unit": "mg/mL"}, {"measurement": "concentration of CN-Cbl", "setting": "[1]; challenge 200 mg/ml, PG 50%, ethanol 20%", "value": 187.9, "unit": "mg/mL"}, {"measurement": "concentration of CN-Cbl", "setting": "[1]; challenge 200 mg/ml, PG 60%, ethanol 0%", "value": 185.2, "unit": "mg/mL"}, {"measurement": "concentration of CN-Cbl", "setting": "[1]; challenge 200 mg/ml, PG 60%, ethanol 5%", "value": 184.8, "unit": "mg/mL"}, {"measurement": "concentration of CN-Cbl", "setting": "[1]; challenge 200 mg/ml, PG 60%, ethanol 10%", "value": 186.8, "unit": "mg/mL"}, {"measurement": "concentration of CN-Cbl", "setting": "[1]; challenge 200 mg/ml, PG 60%, ethanol 15%", "value": 186.4, "unit": "mg/mL"}, {"measurement": "concentration of CN-Cbl", "setting": "[1]; challenge 200 mg/ml, PG 60%, ethanol 20%", "value": 196.0, "unit": "mg/mL"}, {"measurement": "concentration of CN-Cbl", "setting": "[1]; control experiments: water, challenged with 200 mg/ml", "value": "about 20 mg/ml"}, {"measurement": "CN-Cbl solubilized", "setting": "[1]; water, regardless of the amount of the challenge (50-200 mg/ml)", "value": "no more than 30 mg/ml"}, {"measurement": "Conc of CN-Cbl", "setting": "[2]; challenge 50 mg/mL", "value": 11.46, "unit": "mg/mL"}, {"measurement": "Conc of CN-Cbl", "setting": "[2]; challenge 75 mg/mL", "value": 12.31, "unit": "mg/mL"}]}
